Measurements from US7049313B2, “ATM inhibitors” (Kudos Pharmaceuticals Ltd., priority 2002, dated 2006).
pIC50: −log10 of the molar value. Structures can show the parent of a compound that is named as a salt.

Target: T1, ATM (Homo sapiens, UniProt Q13315)
T1 construct: ATM protein was immunoprecipitated from HeLa cell nuclear extract; endogenous in cells; host or cells: HeLa cell nuclear extract (immunoprecipitate)
Assay: In vitro ATM inhibition assay (phosphorylation of GSTp53N66 on serine 15)
Format: biochemical
Settings: not given
Procedure: In vitro ATM inhibition Assays
In order to assess the inhibitory action of the compounds against ATM in vitro, the following assay was used to determine IC50 values.
ATM protein was immunoprecipitated from HeLa cell nuclear extract using rabbit polyclonal anti-sera raised to the C-terminal ˜500 amino-acid residues of the human ATM protein. The immunoprecipitation was performed according to the methodology described by Banin, S. et al. (1998). 10 μl of immunoprecipitated ATM in Buffer C (50 mM Hepes, pH 7.4, 6 mM MgCl2, 150 mM NaCl, 0.1 mM sodium orthovanadate, 4 mM MnCl2, 0.1 mM dithiothreitol, 10% glycerol) was added to 32.5 μl of buffer C containing 1 μg of the ATM substrate GSTp53N66 in a V-bottomed 96 well polypropylene plate. The GSTp53N66 substrate is the amino terminal 66 amino acid residues of human wild type p53 fused to glutathione S-transferase. ATM phosphorylates p53 on the residue serine 15 (Banin, S. et al. (1998)). Varying concentrations of inhibitor were then added. […] After 10 minutes of incubation at 37° C., the reactions were initiated by the addition of 5 μl of 500 μM Na-ATP. After 1 hour with shaking at 37° C., 150 μl of phosphate buffered saline (PBS) was added to the reaction and the plate centrifuged at 1500 rpm for 10 minutes. 5 μl of the reaction was then transferred to a 96 well opaque white plate containing 45 μl of PBS to allow the GSTp53N66 substrate to bind to the plate wells. The plate was covered and incubated at room temperature for 1 hour with shaking before discarding the contents. The plate wells were washed twice by the addition of PBS prior to the addition of 3% (w/v) bovine serum albumin (BSA) in PBS. The plate was incubated at room temperature for 1 hour with shaking before discarding the contents and washing twice with PBS. To the wells, 50 μl of a 1:10,000 dilution of primary phosphoserine-15 antibody (Cell Signaling Technology, #9284L) in 3% BSA/PBS was added to detect the phosphorylation event on the serine 15 residue of p53 elicited by the ATM kinase. After 1 hour of incubation at room temperature with shaking, the wells were washed four times with PBS prior to the addition of an anti-rabbit HRP conjugated secondary antibody (Pierce, 31462) with shaking for 1 hour at room temperature. The wells were then washed four times with PBS before the addition of chemiluminescence reagent (NEN Renaissance, NEL105). The plate was then shaken briefly, covered with a transparent plate seal and transferred to a TopCount NXT for chemiluminescent counting. Counts per second, following a one second counting time, were recorded for each reaction.
The enzyme activity for each compound is then calculated using the following equation: […]

T1 sequence (Q13315 whole entry): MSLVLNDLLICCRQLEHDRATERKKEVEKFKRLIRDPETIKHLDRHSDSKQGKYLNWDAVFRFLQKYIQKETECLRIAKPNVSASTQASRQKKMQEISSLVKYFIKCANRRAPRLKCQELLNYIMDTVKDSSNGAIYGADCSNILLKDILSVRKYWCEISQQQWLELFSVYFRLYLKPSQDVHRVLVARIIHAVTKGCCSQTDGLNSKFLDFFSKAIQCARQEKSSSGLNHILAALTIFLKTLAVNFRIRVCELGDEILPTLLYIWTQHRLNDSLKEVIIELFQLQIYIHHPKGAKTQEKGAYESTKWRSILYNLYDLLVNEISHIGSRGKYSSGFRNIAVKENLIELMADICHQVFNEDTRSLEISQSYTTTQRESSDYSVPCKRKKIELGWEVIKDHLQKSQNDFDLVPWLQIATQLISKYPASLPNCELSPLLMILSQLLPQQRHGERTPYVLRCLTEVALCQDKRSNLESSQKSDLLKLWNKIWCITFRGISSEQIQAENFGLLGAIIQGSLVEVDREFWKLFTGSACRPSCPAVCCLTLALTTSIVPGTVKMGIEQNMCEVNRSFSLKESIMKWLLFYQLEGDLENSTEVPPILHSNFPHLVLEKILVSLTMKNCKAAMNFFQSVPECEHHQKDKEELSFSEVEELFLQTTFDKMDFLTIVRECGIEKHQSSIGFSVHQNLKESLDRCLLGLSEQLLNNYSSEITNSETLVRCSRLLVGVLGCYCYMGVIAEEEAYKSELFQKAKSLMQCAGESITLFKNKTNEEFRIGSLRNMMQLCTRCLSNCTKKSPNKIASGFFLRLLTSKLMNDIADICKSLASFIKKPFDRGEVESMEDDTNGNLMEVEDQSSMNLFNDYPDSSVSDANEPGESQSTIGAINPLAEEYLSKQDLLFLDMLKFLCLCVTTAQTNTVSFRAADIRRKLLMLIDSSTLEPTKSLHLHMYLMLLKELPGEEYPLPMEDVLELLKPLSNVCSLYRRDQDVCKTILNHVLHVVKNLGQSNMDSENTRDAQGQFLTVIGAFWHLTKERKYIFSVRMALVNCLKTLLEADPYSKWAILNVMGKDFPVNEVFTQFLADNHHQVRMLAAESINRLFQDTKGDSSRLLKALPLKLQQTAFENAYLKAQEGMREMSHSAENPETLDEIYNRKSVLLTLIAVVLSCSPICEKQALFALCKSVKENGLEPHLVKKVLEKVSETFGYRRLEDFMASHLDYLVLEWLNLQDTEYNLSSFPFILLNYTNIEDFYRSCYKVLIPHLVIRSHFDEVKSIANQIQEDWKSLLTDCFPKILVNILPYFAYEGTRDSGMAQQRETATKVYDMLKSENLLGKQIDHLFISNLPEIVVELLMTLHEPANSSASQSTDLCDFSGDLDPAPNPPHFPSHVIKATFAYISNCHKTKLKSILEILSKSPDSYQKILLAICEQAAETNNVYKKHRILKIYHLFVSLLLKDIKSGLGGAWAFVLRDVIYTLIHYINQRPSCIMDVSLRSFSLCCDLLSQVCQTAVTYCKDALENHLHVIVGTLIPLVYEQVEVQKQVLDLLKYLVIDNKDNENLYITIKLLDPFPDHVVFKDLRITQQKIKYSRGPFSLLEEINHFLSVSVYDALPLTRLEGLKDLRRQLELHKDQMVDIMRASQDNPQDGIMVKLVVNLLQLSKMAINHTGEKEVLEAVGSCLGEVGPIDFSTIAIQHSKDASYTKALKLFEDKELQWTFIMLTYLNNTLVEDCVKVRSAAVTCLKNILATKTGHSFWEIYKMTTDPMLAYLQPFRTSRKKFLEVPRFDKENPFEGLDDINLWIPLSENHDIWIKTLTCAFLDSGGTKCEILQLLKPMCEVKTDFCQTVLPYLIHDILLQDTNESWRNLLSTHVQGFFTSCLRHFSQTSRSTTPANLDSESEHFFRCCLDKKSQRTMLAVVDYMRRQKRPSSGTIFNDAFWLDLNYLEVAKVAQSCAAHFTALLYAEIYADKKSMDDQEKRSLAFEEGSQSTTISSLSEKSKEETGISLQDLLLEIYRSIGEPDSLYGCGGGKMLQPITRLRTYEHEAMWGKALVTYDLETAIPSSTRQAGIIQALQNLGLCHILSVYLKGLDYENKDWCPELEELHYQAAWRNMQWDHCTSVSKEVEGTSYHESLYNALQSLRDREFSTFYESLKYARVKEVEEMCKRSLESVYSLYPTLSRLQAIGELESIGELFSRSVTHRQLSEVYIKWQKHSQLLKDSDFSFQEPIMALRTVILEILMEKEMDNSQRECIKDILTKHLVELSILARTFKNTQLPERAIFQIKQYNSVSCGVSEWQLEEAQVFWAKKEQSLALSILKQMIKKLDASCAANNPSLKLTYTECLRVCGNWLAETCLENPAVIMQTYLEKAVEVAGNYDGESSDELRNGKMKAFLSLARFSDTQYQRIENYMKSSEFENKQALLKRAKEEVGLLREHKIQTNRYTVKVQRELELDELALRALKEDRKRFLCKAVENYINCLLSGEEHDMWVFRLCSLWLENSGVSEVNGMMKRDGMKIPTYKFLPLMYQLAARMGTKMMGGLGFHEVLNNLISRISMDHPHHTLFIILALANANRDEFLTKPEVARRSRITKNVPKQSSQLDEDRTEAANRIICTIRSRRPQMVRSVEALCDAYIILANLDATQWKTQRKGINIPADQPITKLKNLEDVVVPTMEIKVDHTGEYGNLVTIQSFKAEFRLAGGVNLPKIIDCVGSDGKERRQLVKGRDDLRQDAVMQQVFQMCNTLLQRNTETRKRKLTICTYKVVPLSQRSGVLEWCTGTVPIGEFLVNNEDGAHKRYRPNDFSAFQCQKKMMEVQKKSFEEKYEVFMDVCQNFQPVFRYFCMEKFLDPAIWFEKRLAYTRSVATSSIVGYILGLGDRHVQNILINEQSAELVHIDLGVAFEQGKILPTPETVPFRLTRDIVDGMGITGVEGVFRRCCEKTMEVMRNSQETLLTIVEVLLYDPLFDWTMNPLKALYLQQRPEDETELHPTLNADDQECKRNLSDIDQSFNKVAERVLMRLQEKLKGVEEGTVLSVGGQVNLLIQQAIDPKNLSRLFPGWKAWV

| Compound | pIC50 |
| --- | --- |
| CN1CCN(CC(=O)Nc2ccc3c(c2)Cc2cccc(-c4cc(=O)cc(N5CCOCC5)o4)c2S3)CC1 [Compound 53] | > 6.70 |
| Nc1ccc2c(c1)Cc1cccc(-c3cc(=O)cc(N4CCOCC4)o3)c1S2 [Compound 20, 2-(7-Amino-9H-thioxanthen-4-yl)-6-morpholin-4-yl-pyran-4-one] | > 6.70 |
| O=C(CN1CCNCC1)Nc1ccc2c(c1)Cc1cccc(-c3cc(=O)cc(N4CCOCC4)o3)c1S2 [Compound 52] | > 6.70 |
| O=C(CN1CCCCC1)Nc1ccc2c(c1)Cc1cccc(-c3cc(=O)cc(N4CCOCC4)o3)c1S2 [Compound 51] | > 6.70 |
| COC(=O)CCC(=O)Nc1ccc2c(c1)Cc1cccc(-c3cc(=O)cc(N4CCOCC4)o3)c1S2 [Compound 39] | > 6.70 |
| Cc1cc(C(=O)Nc2ccc3c(c2)Cc2cccc(-c4cc(=O)cc(N5CCOCC5)o4)c2S3)no1 [Compound 45] | > 6.70 |
| NCCC(=O)Nc1ccc2c(c1)Cc1cccc(-c3cc(=O)cc(N4CCOCC4)o3)c1S2 [Compound 84] | > 6.70 |
| O=C(Nc1ccc2c(c1)Cc1cccc(-c3cc(=O)cc(N4CCOCC4)o3)c1S2)c1cccs1 [Compound 30] | > 6.70 |
| CCN(CC)CCC(=O)Nc1ccc2c(c1)Cc1cccc(-c3cc(=O)cc(N4CCOCC4)o3)c1S2 [Compound 83] | > 6.70 |
| NCCNCCC(=O)Nc1ccc2c(c1)Cc1cccc(-c3cc(=O)cc(N4CCOCC4)o3)c1S2 [Compound 75] | > 6.70 |
| NCCNCC(=O)Nc1ccc2c(c1)Cc1cccc(-c3cc(=O)cc(N4CCOCC4)o3)c1S2 [Compound 57] | > 6.70 |
| O=C(CCN1CCCCC1)Nc1ccc2c(c1)Cc1cccc(-c3cc(=O)cc(N4CCOCC4)o3)c1S2 [Compound 69] | > 6.70 |
| O=C(Nc1ccc2c(c1)Cc1cccc(-c3cc(=O)cc(N4CCOCC4)o3)c1S2)c1cccnc1 [Compound 26] | > 6.70 |
| COC(=O)CC(=O)Nc1ccc2c(c1)Cc1cccc(-c3cc(=O)cc(N4CCOCC4)o3)c1S2 [Compound 23] | > 6.70 |
| O=C(CNCCN1CCOCC1)Nc1ccc2c(c1)Cc1cccc(-c3cc(=O)cc(N4CCOCC4)o3)c1S2 [Compound 67] | > 6.70 |
| COc1cc(C(=O)Nc2ccc3c(c2)Cc2cccc(-c4cc(=O)cc(N5CCOCC5)o4)c2S3)cc(OC)c1OC [Compound 38] | > 6.70 |
| O=C(CCN1CCCNCC1)Nc1ccc2c(c1)Cc1cccc(-c3cc(=O)cc(N4CCOCC4)o3)c1S2 [Compound 78] | > 6.70 |

Other lines, results leading:

| pIC50 | Compound |
| --- | --- |
| > 6.70 | O=C(NCCN1CCCC1)c1ccc2c(c1)Sc1cccc(-c3cc(=O)cc(N4CCOCC4)o3)c1S2 [Compound 167] |
| > 6.70 | O=C(NC1CCC1)c1ccc2c(c1)Sc1cccc(-c3cc(=O)cc(N4CCOCC4)o3)c1S2 [Compound 153] |
| > 6.70 | O=C(O)c1ccc2c(c1)Sc1cccc(-c3cc(=O)cc(N4CCOCC4)o3)c1S2 [Compound 138, 6-(6-Morpholin-4-yl-4-oxo-4H-pyran-2-yl)-thianthrene-2-carboxylate sodium salt] |
| > 6.70 | O=C(NCc1ccco1)c1ccc2c(c1)Sc1cccc(-c3cc(=O)cc(N4CCOCC4)o3)c1S2 [Compound 150] |
| > 6.70 | O=C(NCCc1ccccn1)c1ccc2c(c1)Sc1cccc(-c3cc(=O)cc(N4CCOCC4)o3)c1S2 [Compound 173] |
| > 6.70 | O=C(Nc1ccc(-c2cc(=O)cc(N3CCOCC3)o2)c2c1Cc1ccccc1S2)c1ccno1 [Compound 126] |
| > 6.70 | O=C(NCC1CC1)c1ccc2c(c1)Sc1cccc(-c3cc(=O)cc(N4CCOCC4)o3)c1S2 [Compound 152] |
| > 6.70 | O=C(c1ccc2c(c1)Sc1cccc(-c3cc(=O)cc(N4CCOCC4)o3)c1S2)N1CCCC1 [Compound 156] |
| > 6.70 | CCNC(=O)c1ccc2c(c1)Sc1cccc(-c3cc(=O)cc(N4CCOCC4)o3)c1S2 [Compound 142] |
| > 6.70 | Cc1nnsc1C(=O)Nc1ccc(-c2cc(=O)cc(N3CCOCC3)o2)c2c1Cc1ccccc1S2 [Compound 111] |
| > 6.70 | O=C(Nc1ccc(-c2cc(=O)cc(N3CCOCC3)o2)c2c1Cc1ccccc1S2)c1ccc(-c2ccccn2)s1 [Compound 110] |
| > 6.70 | COCC(=O)CC(=O)Nc1ccc(-c2cc(=O)cc(N3CCOCC3)o2)c2c1Cc1ccccc1S2 [Compound 124] |
| > 6.70 | Cc1ccoc1C(=O)Nc1ccc(-c2cc(=O)cc(N3CCOCC3)o2)c2c1Cc1ccccc1S2 [Compound 129] |
| > 6.70 | CC(=O)Oc1cccc(C(=O)Nc2ccc(-c3cc(=O)cc(N4CCOCC4)o3)c3c2Cc2ccccc2S3)c1C [Compound 123] |
| > 6.70 | CCN(CC)CCCNC(=O)c1ccc2c(c1)Sc1cccc(-c3cc(=O)cc(N4CCOCC4)o3)c1S2 [Compound 182] |
| > 6.70 | O=C(NCC1CCCO1)c1ccc2c(c1)Sc1cccc(-c3cc(=O)cc(N4CCOCC4)o3)c1S2 (centres unmarked) [Compound 149] |
| > 6.70 | CN(CCc1ccccn1)C(=O)c1ccc2c(c1)Sc1cccc(-c3cc(=O)cc(N4CCOCC4)o3)c1S2 [Compound 174] |
| > 6.70 | COC[C@@H]1CCCN1NC(=O)c1ccc2c(c1)Sc1cccc(-c3cc(=O)cc(N4CCOCC4)o3)c1S2 [Compound 163] |
| > 6.70 | O=C(NCCc1cnc[nH]1)c1ccc2c(c1)Sc1cccc(-c3cc(=O)cc(N4CCOCC4)o3)c1S2 [Compound 176] |
| > 6.70 | O=C(NCCN1CCN(Cc2ccccc2)CC1)c1ccc2c(c1)Sc1cccc(-c3cc(=O)cc(N4CCOCC4)o3)c1S2 [Compound 179] |
| > 6.70 | CCCCNC(=O)c1ccc2c(c1)Sc1cccc(-c3cc(=O)cc(N4CCOCC4)o3)c1S2 [Compound 143] |
| > 6.70 | O=C(CCNCC1CCCO1)Nc1ccc2c(c1)Cc1cccc(-c3cc(=O)cc(N4CCOCC4)o3)c1S2 (centres unmarked) [Compound 86] |

Tested on: HIV-1 HXB2 AZT resistant
Assay: microbe, parasite or virus in culture
Format: cell-based
Settings: Human immunodeficiency virus 1, HXB2, C8166, 96 h, read-out: HIV-1 HXB2 (IC50 μM) AZT resistant
Procedure: (§1) HIV-1 4-day Replication Assays
(§2) C8166 T-cells were washed and infected with HIV-1 (strains HXB2wt and HXB2AZTres, RT amino acid changes 67N, 70R, 215F, 219Q) at low multiplicity of infection for one hour at room temperature. The cells were then washed and distributed (5×10^4 cells/well) in triplicate into the wells of 96-well cell culture plates containing different concentrations of inhibitors. The plates were then incubated at 37° C. for 4 days. The cell-free culture fluid was then harvested and assayed for levels of p24 viral antigen using a commercially available ELISA kit (Murex), according to the manufacturers' instructions. Cytotoxicity was evaluated by distributing (5×10^4 cells/well) uninfected C8166 T-cells into triplicate wells of 96-well cell culture plates containing different concentrations of inhibitor and incubating the plates at 37° C. After 4 days, 25 μl of XTT, which is metabolised by viable but not dead cells was added and the plates incubated for a further 3 hours at 37° C. Finally, the absorbance was read at a wavelength of 450 nm.

| Compound | IC50 |
| --- | --- |
| Cc1cn([C@H]2C[C@H](N=[N+]=[N-])[C@@H](CO)O2)c(=O)[nH]c1=O [AZT, 3′-azido-3′-deoxythymidine, reference compound] | 0.05 µM |

Tested on: HIV-1 HXB2 wild type
Assay: HIV-1 4-day replication assay, wild type strain (p24 antigen ELISA)
Format: cell-based
Settings: Human immunodeficiency virus 1, HXB2, 96 h; C8166 T-cells; 4-day replication; p24
Procedure: as §1, §2

| Compound | IC50 |
| --- | --- |
| Cc1cn([C@H]2C[C@H](N=[N+]=[N-])[C@@H](CO)O2)c(=O)[nH]c1=O [AZT, 3′-azido-3′-deoxythymidine, reference compound] | 0.002 µM |
